This note sets out measurements from US8063071B2 (GlaxoSmithKline, LLC, priority 2007, dated 2011).

A word on the inhibition: it is the percentage by which the read-out fell short of the control.

The structures appear in SMILES notation. Counter-ions that a name gives are not always drawn.

For experiment [1], the target named is T1, Recombinant human IKKβ (residues 1-737) (Homo sapiens, UniProt O14920).
T1 construct: Recombinant human IKKβ (residues 1-737); GST (C); made in house
T1 sequence (O14920 1-737): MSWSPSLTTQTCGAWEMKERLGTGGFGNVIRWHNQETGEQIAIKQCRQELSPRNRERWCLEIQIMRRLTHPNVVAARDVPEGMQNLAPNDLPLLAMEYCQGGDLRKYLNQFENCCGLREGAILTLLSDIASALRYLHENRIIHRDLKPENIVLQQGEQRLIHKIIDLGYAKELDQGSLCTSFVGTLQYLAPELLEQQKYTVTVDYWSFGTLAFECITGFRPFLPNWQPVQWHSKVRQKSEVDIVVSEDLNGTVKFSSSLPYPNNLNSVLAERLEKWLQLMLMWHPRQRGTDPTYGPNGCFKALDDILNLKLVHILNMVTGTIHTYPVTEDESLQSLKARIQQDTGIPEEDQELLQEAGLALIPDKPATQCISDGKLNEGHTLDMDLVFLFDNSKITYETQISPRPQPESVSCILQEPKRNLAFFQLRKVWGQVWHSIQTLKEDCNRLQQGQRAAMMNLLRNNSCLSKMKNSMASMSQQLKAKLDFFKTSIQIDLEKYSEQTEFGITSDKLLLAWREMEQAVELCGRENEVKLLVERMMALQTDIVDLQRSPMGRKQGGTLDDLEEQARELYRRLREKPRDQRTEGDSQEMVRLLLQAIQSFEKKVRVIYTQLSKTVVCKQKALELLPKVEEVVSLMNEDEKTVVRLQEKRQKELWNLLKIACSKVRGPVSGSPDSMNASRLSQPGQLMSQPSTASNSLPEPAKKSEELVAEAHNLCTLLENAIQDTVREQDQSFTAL
Put plainly: IKK2 assay (TR-FRET). The experiment is classed as biochemical. The note with it: ATP 1 μM final, read-out: pIC50 against IKK2 (converted). In outline:
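Baculovirus-expressed C-terminal GST-tagged IKKβ (0.5-5 nM final) in HEPES pH 7.4, MgCl2, CHAPS, DTT, BSA with 1.7% DMSO; 25 nM GST-IB substrate and 1 μM ATP, 15 min at room temperature. EDTA stop; phospho-Ser32/36 detected by Eu-antibody/APC-anti-GST TR-FRET, 665/620 nm ratio.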
For orientation: In TR-FRET formats the signal depends on donor and acceptor labels being close together.

Experiment [2] concerns human monocyte stimulated cytokine production (TNF-α). The experiment is described as follows: Monocyte assay (LPS-stimulated TNF-α production). The following applies: for IC50: 24 h, 200 ng/mL LPS, TNF-α by ELISA; for inhibition at 0.3 µM: read-out: inhibition at 300 nM in the monocyte assay. It counts as cell-based. As to the method: Effect of IKK-β inhibition on human monocyte stimulated cytokine production was assessed as follows: Monocytes were isolated from heparinized whole blood by Ficoll gradient, followed by purification of CD14+ cells using MACS magnetic cell separation beads. Isolated monocytes were then adhered to 96-well culture plates at 1×10^6 cells/mL in RPMI 1640 10% FBS (JRH Biosciences, Lenexa Kans.) for 2 h. Test compounds are added to the wells 30 minutes prior to stimulation with a final vehicle concentration of 0.1% DMSO. Monocytes were activated by the addition of 200 ng/mL endotoxin (LPS; E. coli serotype 026:B6)(Sigma, St. Louis, Mo.) and incubated for 24 hrs at 37 C. Cell-free supernates were analyzed by ELISA for TNF-α using Pharmingen matched pair Abs. Viability of the cells was determined by 10% trypan blue exclusion.
In general terms: ELISA stands for enzyme-linked immunosorbent assay.

Turning to `CCS(=O)(=O)N1CCC(c2c[nH]c3c(C(N)=O)cc(-c4cccc(CNC(C)CO)c4)cc23)CC1` (stereo not shown) [Example 19, 3-[1-(ethylsulfonyl)-4-piperidinyl]-5-(3-{[(2-hydroxy-1-methylethyl)amino]methyl}phenyl)-1H-indole-7-carboxamide], the results for the IC50 in experiment [1] and in experiment [2] were not above 10 µM and not above 1.5 µM, respectively.
For `CCS(=O)(=O)N1CCC(c2c[nH]c3c(C(N)=O)cc(-c4cccc(CN[C@H]5CC[C@H](O)CC5)c4)cc23)CC1` [Example 20, 3-[1-(ethylsulfonyl)-4-piperidinyl]-5-(3-{[(trans-4-hydroxycyclohexyl)amino]methyl}phenyl)-1H-indole-7-carboxamide] the same measures were not above 10 µM and not above 1.5 µM.
The corresponding values for `CCS(=O)(=O)N1CCC(c2c[nH]c3c(C(N)=O)cc(-c4cccc(CNC[C@H](C)O)c4)cc23)CC1` [Example 22, 3-[1-(ethylsulfonyl)-4-piperidinyl]-5-[3-({[(2S)-2-hydroxypropyl]amino}methyl)phenyl]-1H-indole-7-carboxamide] are not above 10 µM and not above 1.5 µM.
On to `CCNCc1cccc(-c2cc(C(N)=O)c3[nH]cc(C4CCN(S(=O)(=O)CC)CC4)c3c2)c1` [Example 23, 5-{3-[(ethylamino)methyl]phenyl}-3-[1-(ethylsulfonyl)-4-piperidinyl]-1H-indole-7-carboxamide], for which the values for the IC50 in experiment [1] and in experiment [2] were not above 10 µM and not above 1.5 µM, respectively.
The corresponding values for `CCCNCc1cccc(-c2cc(C(N)=O)c3[nH]cc(C4CCN(S(=O)(=O)CC)CC4)c3c2)c1` [Example 24, 3-[1-(ethylsulfonyl)-4-piperidinyl]-5-{3-[(propylamino)methyl]phenyl}-1H-indole-7-carboxamide] are not above 10 µM and more than 1 µM.
The corresponding values for `CCS(=O)(=O)N1CCC(c2c[nH]c3c(C(N)=O)cc(-c4cccc(CNC(C)C)c4)cc23)CC1` [Example 25, 3-[1-(ethylsulfonyl)-4-piperidinyl]-5-(3-{[(1-methylethyl)amino]methyl}phenyl)-1H-indole-7-carboxamide] are not above 10 µM and not above 1.5 µM.
For `CCC(CC)NCc1cccc(-c2cc(C(N)=O)c3[nH]cc(C4CCN(S(=O)(=O)CC)CC4)c3c2)c1` [Example 26, 5-(3-{[(1-ethylpropyl)amino]methyl}phenyl)-3-[1-(ethylsulfonyl)-4-piperidinyl]-1H-indole-7-carboxamide], the results for the IC50 in experiment [1] and in experiment [2] were not above 10 µM and not above 1.5 µM, respectively.
In the case of `CCS(=O)(=O)N1CCC(c2c[nH]c3c(C(N)=O)cc(-c4ccc(CN5CCCCC5)cc4)cc23)CC1` [Example 27, 3-[1-(ethylsulfonyl)-4-piperidinyl]-5-[4-(1-piperidinylmethyl)phenyl]-1H-indole-7-carboxamide], the values for the IC50 in experiment [1] and in experiment [2] were not above 10 µM and not above 1.5 µM, respectively.
As for `CCS(=O)(=O)N1CCC(c2c[nH]c3c(C(N)=O)cc(-c4cccc(CNC)c4)cc23)CC1` [Example 28, 3-[1-(ethylsulfonyl)-4-piperidinyl]-5-{3-[(methylamino)methyl]phenyl}-1H-indole-7-carboxamide], the IC50 in experiment [1] was not above 10 µM; in experiment [2] it was not above 1.5 µM.
The corresponding values for `CCS(=O)(=O)N1CCC(c2c[nH]c3c(C(N)=O)cc(-c4ccc(CN5CCOCC5)cc4)cc23)CC1` [Example 29, 3-[1-(ethylsulfonyl)-4-piperidinyl]-5-[4-(4-morpholinylmethyl)phenyl]-1H-indole-7-carboxamide] are not above 10 µM and not above 1.5 µM.
For `CCS(=O)(=O)N1CCC(c2c[nH]c3c(C(N)=O)cc(-c4ccc(CN)cc4)cc23)CC1` [Example 30, 5-[4-(aminomethyl)phenyl]-3-[1-(ethylsulfonyl)-4-piperidinyl]-1H-indole-7-carboxamide] the same measures were not above 10 µM and not above 1.5 µM.
For `CCS(=O)(=O)N1CCC(c2c[nH]c3c(C(N)=O)cc(-c4cccc(CNC5CC5)c4)cc23)CC1` [Example 31, 5-{3-[(cyclopropylamino)methyl]phenyl}-3-[1-(ethylsulfonyl)-4-piperidinyl]-1H-indole-7-carboxamide], the IC50 in experiment [1] is not above 10 µM; in experiment [2], not above 1.5 µM.
Consider `CCS(=O)(=O)N1CCC(c2c[nH]c3c(C(N)=O)cc(-c4ccc5c(c4)C(NCC(C)C)CC5)cc23)CC1` (stereo not shown) [Example 33, 3-[1-(ethylsulfonyl)-4-piperidinyl]-5-{3-[(2-methylpropyl)amino]-2,3-dihydro-1H-inden-5-yl}-1H-indole-7-carboxamide trifluoroacetate], for which the results for the IC50 in experiment [1] and in experiment [2] were not above 10 µM and not above 1.5 µM, respectively.
The corresponding values for `CCS(=O)(=O)N1CCC(c2c[nH]c3c(C(N)=O)cc(-c4cc(CNCCC#N)ccc4F)cc23)CC1` [Example 35, 5-(5-{[(2-cyanoethyl)amino]methyl}-2-fluorophenyl)-3-[1-(ethylsulfonyl)-4-piperidinyl]-1H-indole-7-carboxamide trifluoroacetate] are not above 10 µM and more than 1 µM.
With `CCS(=O)(=O)N1CCC(c2c[nH]c3c(C(N)=O)cc(-c4cc(CNCC(F)(F)F)ccc4F)cc23)CC1` [Example 36, 3-[1-(ethylsulfonyl)-4-piperidinyl]-5-(2-fluoro-5-{[(2,2,2-trifluoroethyl)amino]methyl}phenyl)-1H-indole-7-carboxamide trifluoroacetate], the IC50 is not above 10 µM in experiment [1] and more than 1 µM in experiment [2].
In the case of `CCS(=O)(=O)N1CCC(c2c[nH]c3c(C(N)=O)cc(-c4ccc5c(c4)CNCC5)cc23)CC1` [Example 37, 3-[1-(ethylsulfonyl)-4-piperidinyl]-5-(1,2,3,4-tetrahydro-7-isoquinolinyl)-1H-indole-7-carboxamide trifluoroacetate], the IC50 in experiment [1] was not above 10 µM; in experiment [2], not above 1.5 µM.
As to `CCS(=O)(=O)N1CCC(c2c[nH]c3c(C(N)=O)cc(-c4cccc(CNCC(F)(F)F)c4)cc23)CC1` [Example 38, 3-[1-(ethylsulfonyl)-4-piperidinyl]-5-(3-{[(2,2,2-trifluoroethyl)amino]methyl}phenyl)-1H-indole-7-carboxamide trifluoroacetate], the results for the IC50 in experiment [1] and in experiment [2] were not above 10 µM and not above 1.5 µM, respectively.
For `CCS(=O)(=O)N1CCC(c2c[nH]c3c(C(N)=O)cc(-c4cccc(CN(C)CC(N)=O)c4)cc23)CC1` [Example 39, 5-(3-{[(2-amino-2-oxoethyl)(methyl)amino]methyl}phenyl)-3-[1-(ethylsulfonyl)-4-piperidinyl]-1H-indole-7-carboxamide trifluoroacetate], the IC50 in experiment [1] was not above 10 µM. The inhibition at 0.3 µM in experiment [2] is 0 to 60%.
Take `CCS(=O)(=O)N1CCC(c2c[nH]c3c(C(N)=O)cc(-c4csc(CNCC(F)(F)F)n4)cc23)CC1` [Example 40, 3-[1-(ethylsulfonyl)-4-piperidinyl]-5-(2-{[(2,2,2-trifluoroethyl)amino]methyl}-1,3-thiazol-4-yl)-1H-indole-7-carboxamide trifluoroacetate]: the IC50 in experiment [1] was not above 10 µM. The inhibition at 0.3 µM in experiment [2] fell in the range of 0 to 60%.
As to `CCS(=O)(=O)N1CCC(c2c[nH]c3c(C(N)=O)cc(-c4csc(CN(C)C5CCN(C)CC5)c4)cc23)CC1` [Example 42, 3-[1-(ethylsulfonyl)-4-piperidinyl]-5-(5-{[methyl(1-methyl-4-piperidinyl)amino]methyl}-3-thienyl)-1H-indole-7-carboxamide trifluoroacetate], the IC50 in experiment [1] was not above 10 µM; in experiment [2], not above 1.5 µM.
